According to patent USRE49816E1, “Dipeptides as inhibitors of human immunoproteasomes” (CORNELL UNIVERSITY, priority 2014, dated 2024):
Entries after “also recorded” stand apart in the source; their conditions may differ.

Columns and labels:
TNBS-induced colitis [1] = settings: Watanabe et al.; cited from earlier work
RAW264 GFP-LC3 cells = assay: Autophagy induction in RAW264 GFP-LC3 cells; type: cell-based, mouse; settings: 10 nM, 37° C. overnight; bafilomycin A 20 nM 4 hours
Protocol: Prior to fixation with 4% paraformaldehyde, the cells were treated with bafilomycin A (20 nM), an inhibitor of the late phase of autophagy, for 4 hours. Fluorescent images were recorded digitally with a multiphoton microscope. […]

4T1 mammary carcinoma = settings: i.p. daily 6 mg/kg from Day 10, sacrifice Day 20; p<0.05
[2] = system: HepG2 human hepatoma cells; assay: Cytotoxicity against HepG2; type: cell-based; settings: concentrations up to 50 μM
[3] = system: mouse bone marrow derived macrophages (BMDMs); assay: Cytokine production in LPS-activated macrophages (ELISA, qPCR); type: cell-based
Protocol: Culture supernatants were harvested 24 hours (h) after LPS stimulation and analyzed for cytokine production by enzyme-linked immunosorbent assay (ELISA). Total RNA was isolated 4 h after LPS stimulation and analyzed by real time quantitative polymerase chain reaction (PCR) for IL-12p35 and IL-12/IL-23p40 genes. Data are expressed relative to levels of glyceraldehyde 3-phosphate dehydrogenase (GAPDH) levels and represent three independent experiments.
The dipeptide compounds and their relative inhibitory results on the βcomponent of the human immunoproteasome (β5i) and constitutive proteasome (β5c) are described in Examples 151 and 152.

mouse i-20S β5i = assay: Predicted inhibition of mouse i-20S β5i over mouse c-20S β5c; type: biochemical; settings: predicted from sequence identity
TNBS-induced colitis [4] = assay: TNBS-induced colitis in mice
Karpas 1106p cells [5] = assay: Cytotoxicity (LD50) against Karpas lymphoma cells; type: cell-based, human; settings: Table 3
Source text: Table 3 lists the inhibition kinetic parameters, selectivity index, and calculated log Ps of selected dipeptides.

hu i-20S β5i-subunit = hu i-20S β5i-subunit (Homo sapiens, UniProt P20618+P28062); assay: N,C-capped dipeptides IC50, Ac-ANW-AMC fluorescence assay; type: biochemical
Protocol: All inhibitory assays for N,C capped dipeptides were performed in a black solid-bottom 96-well plate. In general, compound plates were prepared starting from 10 mM in 3× series dilution to 15 μM. 1 μl of DMSO stock was transferred to a black 96-well plate and 100 μL of reaction mixture were added 15 μM N-acetyl-Alanine-Asparagine-Tryptophan-7-amino-4-methylcourmarin (Ac-ANW-AMC) or 25 μM succinyl-Leucine-Leucine-Valine-Tyrosine-7-amino-4-methyl-courmarin (succ-LLVY-AMC), 0.4 nM hu i-20S β5i-subunit or 0.2 nM hu c-20S β5c-subunit, 0.02% SDS, 1% BSA, 0.5 mM EDTA in 20 mM HEPES buffer at pH7.5. The plates were then spun at 1000 rpm for 1 minute, and the fluorescence units of each well were recorded at λex=360 nm, λem=460 nm for 2 hours. The slopes of the initial linear range of the time course were used to calculate the velocity, and relative activities were normalized to the velocities of the DMSO control.

Karpas 1106p cells [6] = assay: Cytotoxicity (LD50) against Karpas lymphoma cells; type: cell-based, human; settings: Table 4
[7] = system: proteasome inside the Karpas 1106p cells; assay: Cell-based Proteasome-Glo assay after compound removal; parameters: species or system human; settings: 4 hours, read-out: Proteasome-glo β5-IC50
[8] = system: mouse bone marrow derived macrophages (BMDMs); assay: Cytotoxicity against BMDMs; settings: concentrations up to 50 μM
[9] = system: human peripheral blood mononuclear cells; assay: Cytotoxicity against PBMCs; type: cell-based; settings: concentrations up to 50 μM
Karpas cells = assay: Accumulation of poly-ubiquitinylated proteins in Karpas cells (anti-ub blot); type: cell-based, human; settings: 24 hours treatment
Protocol: FIGS. 5A-C show experimental results relating to SAR studies and target engagement inside the cells. FIG. 5A is a graph showing experimental results relating to inhibition of i-20S β5i and c-20S β5c by selected dipeptides. […] FIG. 5C is an image of an SDS-page gel showing accumulation of poly-ubiquitinylated (ub) proteins. Karpas cells were treated with dipeptides, or with bortezomib as a control, at indicated concentrations for 24 hours, and the poly-ub proteins in the lysates were blotted with anti-ub antibody and visualized with a second antibody directed against the first antibody and tagged with a dye that absorbs infrared light (Odyssey® CLx imaging system, LICOR).

[10] = system: human B-lymphoma cell line; assay: Cytotoxicity against B-lymphoma cell line; type: cell-based; settings: concentrations up to 50 μM
[11] = system: mouse bone marrow derived macrophages (BMDMs); settings: Muchamuel et al. 2009; cited from earlier work

**Q.** Which protection from colitis (TNBS-induced colitis [1]) does the source give for `CC(=O)N[C@H]1C(O)O[C@H](CO)[C@@H](O)[C@@H]1O[C@H](C)C(=O)N[C@@H](C)C(=O)N[C@H](CCC(=O)O)C(N)=O` (mixture of isomers) [MDP, muramyl dipeptide] here?
**A.** Its protection from colitis is “protected mice from colitis”.

**Q.** For `CC(C)(C)ONC(=O)C[C@H](NC(=O)CCc1ccccc1)C(=O)N[C@@H](Cc1ccc(F)cc1)C(=O)NCc1cccc2ccccc12` [DPLG-3], which induction of autophagy (RAW264 GFP-LC3 cells) is on record?
**A.** Its induction of autophagy is “induces autophagy”.

**Q.** What about the “tumor size and weight” value (4T1 mammary carcinoma) of the same compound?
**A.** The value was “reducing the size and weight”.

**Q.** And the cytotoxicity [2]?
**A.** Its cytotoxicity is “not cytotoxic”.

**Q.** And the IL-10 production [3]?
**A.** The IL-10 production was “no significant effects”.

**Q.** What about the “sensitivity of IL-12 and IL-23 production vs TNF-α (factor)” value [3] of the same compound?
**A.** The value was 10-20.

**Q.** What about the “production of IL-12” value ([3]; LPS 1 μg/ml, 24 h, ELISA) of the same compound?
**A.** The value was “dose-dependently inhibited”.

**Q.** And the “production of IL-12/IL-23p40” value ([3]; LPS 1 μg/ml, 24 h, ELISA)?
**A.** The value was “dose-dependently inhibited”.

**Q.** And the “production of TNF-α” value ([3]; LPS 1 μg/ml, 24 h, ELISA)?
**A.** Its value is “dose-dependently inhibited”.

**Q.** And the “transcription of P35 and P40” value ([3]; mRNA 4 h after LPS, qPCR relative to GAPDH)?
**A.** The value was “reduced”.

**Q.** And the IL-6 production ([3]; on its own)?
**A.** The IL-6 production was “dose-dependently induced”.

**Q.** What about the “inhibition of mouse i-20S β5i over mouse c-20S β5c” value (mouse i-20S β5i) of the same compound?
**A.** Its value is “potently and selectively inhibit”.

**Q.** And the adverse effects (TNBS-induced colitis [4]; I.P. 3-12 mg/kg, TNBS mice)?
**A.** The adverse effects was “did not cause detectable adverse effects”.

**Q.** What about the colitis-induced weight loss (TNBS-induced colitis [4]; I.P. at day −1, 1 and 3, 3, 6 and 12 mg/kg, dose-dependent) of the same compound?
**A.** The colitis-induced weight loss was “strongly inhibited colitis-induced weight loss”.

**Q.** What about the “colitis-induced weight loss / pathogenesis” value (TNBS-induced colitis [4]; one-time i.v. injection (6 mg/kg) at time of TNBS challenge, WT mice) of the same compound?
**A.** The value was “strongly inhibited colitis-associated pathogenesis; also recorded: strongly inhibited colitis-induced weight loss”.

**Q.** What about the LD50 (Karpas 1106p cells [5]) of the same compound?
**A.** Its LD50 is 2.04 µM.

**Q.** What about the mode of inhibition (hu i-20S β5i-subunit) of the same compound?
**A.** The mode of inhibition was “competitive inhibition”.

**Q.** And the “LD50 Karpas” value (Karpas 1106p cells [6])?
**A.** The value was 2.04 µM.

**Q.** What about the IC50 [7] of the same compound?
**A.** Its IC50 is 110 nM.

**Q.** And the cytotoxicity [8]?
**A.** The cytotoxicity was “not cytotoxic”.

**Q.** And the cytotoxicity [9]?
**A.** Its cytotoxicity is “not cytotoxic”.

**Q.** And the “accumulation of poly-ubiquitinylated proteins” value (Karpas cells)?
**A.** The value was “did not cause accumulation”.

**Q.** And the cytotoxicity [10]?
**A.** Its cytotoxicity is “not cytotoxic”.

**Q.** Which “effect on cytokines analyzed” value [11] does the source give for `COc1ccc(C[C@H](NC(=O)[C@H](C)NC(=O)CN2CCOCC2)C(=O)N[C@@H](Cc2ccccc2)C(=O)[C@]2(C)CO2)cc1` [ONX 0914] here?
**A.** The value was “inhibitory”.
